Laboratory results taken from patent US6197769A, “Indazole amide compounds as serotoninergic agents” (Aziende Chimiche Riunite Angelini Francesco A.C.R.A.F. …, priority 1997, dated 2001).
Where a name gives a salt, the structure may show the parent alone.

Target: T1, 5-HT4 Receptor (Rattus norvegicus, UniProt Q62758)
T1 construct: serotonin-induced relaxation of rat oesophageal tunica; from tissue; host or cells: rat oesophageal tunica
Assay: Antagonistic action on 5-HT4 receptor: inhibition of serotonin-induced relaxation of rat oesophageal tunica pre-contracted with carbachol
Settings: antagonism, read-out: pA2 (converted)
Experimental: Antagonistic Action on 5-HT4 Receptor
The antagonistic action of the compounds of the formula (I) was evaluated by testing the influence of the compound under evaluation on serotonin-induced relaxation of rat oesophageal tunica pre-contracted with carbachol according to the method described by J. D. Gale et al. in "Br. J. Pharmacol.", 111, 332-338, (1994).

T1 sequence (Q62758 whole entry): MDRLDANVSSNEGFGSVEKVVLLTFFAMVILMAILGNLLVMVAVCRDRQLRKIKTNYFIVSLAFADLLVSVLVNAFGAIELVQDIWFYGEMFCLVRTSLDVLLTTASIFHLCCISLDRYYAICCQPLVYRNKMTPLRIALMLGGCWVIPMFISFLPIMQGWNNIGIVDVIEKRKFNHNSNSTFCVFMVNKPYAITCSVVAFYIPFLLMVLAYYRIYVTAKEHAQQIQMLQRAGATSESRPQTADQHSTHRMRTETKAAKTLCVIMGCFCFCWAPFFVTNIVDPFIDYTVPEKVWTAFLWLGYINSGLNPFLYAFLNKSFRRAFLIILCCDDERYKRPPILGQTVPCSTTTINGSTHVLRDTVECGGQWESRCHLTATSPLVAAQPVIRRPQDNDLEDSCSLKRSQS

SMILES: CC(C)n1nc(C(=O)NCC2CCN(CCc3ccccc3)CC2)c2ccccc21 [AFR 306, N3-{[1-(2-phenylethyl)-4-piperidinyl]methyl}-1-isopropyl-1H-3-indazolecarboxamide hydrochloride]
- Kb: 0.437 nM

SMILES: CC(C)n1nc(C(=O)NCC2CCN(CCC3CCCCC3)CC2)c2ccccc21 [AFR 604, N3-{[1-(2-cyclohexylethyl)-4-piperidinyl]methyl}-1-isopropyl-1H-3-indazolecarboxamide hydrochloride]
- Kb: 6.46 nM

SMILES: CC(C)n1nc(C(=O)NCC2CCN(CCc3ccccn3)CC2)c2ccccc21 [AFR 605, N3-({1-[2-(2-pyridinyl)ethyl]4-piperidinyl}methyl)-1-isopropyl-1H-3-indazolecarboxamide hydrochloride]
- Kb: 0.0158 nM

SMILES: CC(C)n1nc(C(=O)NCC2CCN(CCCCc3ccccc3)CC2)c2ccccc21 [AFR 603, N3-{[1-(4-phenylbutyl)-4-piperidinyl]methyl}-1-isopropyl-1H-3-indazolecarboxamide oxalate]
- Kb: 0.759 nM
